Measurements taken from paper PMC11249953, “c-KIT inhibitors reduce pathology and improve behavior in the Tg(SwDI) model of Alzheimer’s disease” (Life Science Alliance, 2024).

Experiments:
[1] = target: T1, DDR1 (Homo sapiens, UniProt Q08345); experiment: KINOMEscan competition binding, DDR1; details: 10 µM compound; for remaining binding at 10 µM: lower = stronger binding, read-out: DDR1 %Ctrl @ 10000nM
T1 construct: DNA label for qPCR read-out (T7 phage fusion or DNA tag); purchased Eurofins DiscoverX Corporation; host or cells: T7 phage in E. coli (BL21-derived) or HEK-293
T1 sequence (Q08345 19-913): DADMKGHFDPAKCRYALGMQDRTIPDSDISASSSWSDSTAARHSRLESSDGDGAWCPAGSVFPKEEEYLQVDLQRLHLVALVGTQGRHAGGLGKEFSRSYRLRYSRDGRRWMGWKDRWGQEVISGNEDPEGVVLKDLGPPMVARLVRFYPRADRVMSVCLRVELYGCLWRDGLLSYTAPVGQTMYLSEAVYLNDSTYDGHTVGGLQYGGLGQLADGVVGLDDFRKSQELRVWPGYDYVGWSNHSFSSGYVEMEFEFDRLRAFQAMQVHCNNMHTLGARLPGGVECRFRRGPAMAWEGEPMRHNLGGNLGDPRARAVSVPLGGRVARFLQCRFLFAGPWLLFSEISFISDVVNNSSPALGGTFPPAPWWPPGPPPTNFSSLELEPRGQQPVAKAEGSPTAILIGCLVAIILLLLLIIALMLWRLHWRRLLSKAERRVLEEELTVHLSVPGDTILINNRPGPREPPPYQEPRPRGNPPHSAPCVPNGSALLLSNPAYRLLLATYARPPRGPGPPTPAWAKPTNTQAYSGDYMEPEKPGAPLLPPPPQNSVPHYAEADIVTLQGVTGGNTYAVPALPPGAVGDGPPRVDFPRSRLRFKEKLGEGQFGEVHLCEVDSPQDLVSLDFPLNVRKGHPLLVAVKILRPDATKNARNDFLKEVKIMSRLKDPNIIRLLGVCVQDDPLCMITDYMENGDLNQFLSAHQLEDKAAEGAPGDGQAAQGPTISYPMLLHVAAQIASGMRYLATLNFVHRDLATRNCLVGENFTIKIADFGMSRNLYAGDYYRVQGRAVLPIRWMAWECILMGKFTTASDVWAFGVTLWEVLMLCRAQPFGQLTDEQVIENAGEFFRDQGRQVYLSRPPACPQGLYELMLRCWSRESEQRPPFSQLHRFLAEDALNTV
Experimental: (§1) The KINOMEscan screening platform (Eurofins DiscoverX Corporation) was performed using active site-directed competition binding assay to quantitatively measure interactions between BK40143 and BK40197 and more than 450 human kinases and disease relevant mutant variants. […] Screening “hits” are identified by measuring the amount of kinase captured in test (BK40143 and BK40197) versus control samples by using a quantitative and ultra-sensitive qRT-PCR method that detects the associated DNA label. BK40143 and BK40197 were screened at 10 µM concentration, and results for primary screen binding interactions were reported as “% Ctrl” (POC), where lower numbers indicate stronger hits and calculated as follows: [test compound signal−positive control signal/negative control signal−positive control signal]×100
(§2) negative control = DMSO (100% Ctrl)
(§3) positive control = control compound (0% Ctrl)
(§4) Based on screening data from of profiled compounds, a proportional relationship between primary screening results and corresponding compound/target affinities can be described as binding constants (Kd values) for the indicated ranges of POC values with tighter binding (higher affinity) interactions associated with lower POC values and weaker binding (lower affinity) associated with higher POC values. Briefly, kinase-tagged T7 phage strains were grown in parallel in 24-well blocks in an E. coli host derived from the BL21 strain. E. coli were grown to log-phase and infected with T7 phage from a frozen stock (multiplicity of infection = 0.4) and incubated with shaking at 32°C until lysis (90–150 min). The lysates were centrifuged (6,000g) and filtered (0.2 μm) to remove cell debris. The remaining kinases were produced in HEK-293 cells and subsequently tagged with DNA for qRT-PCR detection. Streptavidin-coated magnetic beads were treated with biotinylated small molecule ligands for 30 min at RT to generate affinity resins for kinase assays. The liganded beads were blocked with excess biotin and washed with blocking buffer (1% BSA, 0.05% Tween 20, 1 mM DTT; SeaBlock [Pierce]) to remove unbound ligand and to reduce non-specific phage binding. Binding reactions were assembled by combining kinases, liganded affinity beads, and test compounds in 1x binding buffer (20% 0.17x PBS, 0.05% Tween 20, 6 mM DTT; SeaBlock). Test compounds were prepared as 100x stocks in 100% DMSO and directly diluted into the assay. All reactions were performed in polypropylene 384-well plates in a final volume of 0.02 ml. The assay plates were incubated at RT with shaking for 1 h and the affinity beads were washed with wash buffer (1x PBS, 0.05% Tween 20). […] The kinase concentration in the eluates was measured by qRT-PCR.

[2] = tested on: IBA1+ microglia of TgAPP mice; experiment: IBA1 staining and microglial morphological analysis (Imaris); type: in vivo, mouse; details: BK40143 5 mg/kg, BK40197 45 mg/kg, vs DMSO
Experimental: Staining for amyloid-beta and microglia was performed on left brain hemispheres collected from treated and untreated mice. Brains were cryoprotected with 30% sucrose and sectioned at 30 μm on a cryostat. Sections were then treated with an anti-amyloid beta (6E10, cat. #803001; BioLegend) or anti-IBA1 (cat. # 018-28523; Wako Chemicals) primary followed by either an AlexaFluor secondary (Thermo Fisher Scientific) and DAPI mounting medium (Vector Labs) or a biotinylated secondary and 3, 3′ diaminobenzidine chromogen substrate. Slides were imaged on either a Leica DMi8 light microscope or a Zeiss LSM 800 confocal microscope.
63x z-stack images (0.19 μm intervals) of IBA1 stained microglia from treated and untreated mice were collected on a Zeiss LSM confocal microscope. 3D images were then analyzed using the “surfaces” plug-in in Imaris 10.0 to ascertain cell-surface area. Individual microglial surface areas were calculated in the advanced statistics tab of Imaris.

[3] = target: T2, FLT3 (Homo sapiens, UniProt P36888); experiment: KINOMEscan competition binding, FLT3; details: 10 µM compound; for remaining binding at 10 µM: lower = stronger binding, read-out: FLT3 %Ctrl @ 10000nM (POC)
T2 construct: DNA label for qPCR read-out (T7 phage fusion or DNA tag); purchased Eurofins DiscoverX Corporation; host or cells: T7 phage in E. coli (BL21-derived) or HEK-293
T2 sequence (P36888 27-993): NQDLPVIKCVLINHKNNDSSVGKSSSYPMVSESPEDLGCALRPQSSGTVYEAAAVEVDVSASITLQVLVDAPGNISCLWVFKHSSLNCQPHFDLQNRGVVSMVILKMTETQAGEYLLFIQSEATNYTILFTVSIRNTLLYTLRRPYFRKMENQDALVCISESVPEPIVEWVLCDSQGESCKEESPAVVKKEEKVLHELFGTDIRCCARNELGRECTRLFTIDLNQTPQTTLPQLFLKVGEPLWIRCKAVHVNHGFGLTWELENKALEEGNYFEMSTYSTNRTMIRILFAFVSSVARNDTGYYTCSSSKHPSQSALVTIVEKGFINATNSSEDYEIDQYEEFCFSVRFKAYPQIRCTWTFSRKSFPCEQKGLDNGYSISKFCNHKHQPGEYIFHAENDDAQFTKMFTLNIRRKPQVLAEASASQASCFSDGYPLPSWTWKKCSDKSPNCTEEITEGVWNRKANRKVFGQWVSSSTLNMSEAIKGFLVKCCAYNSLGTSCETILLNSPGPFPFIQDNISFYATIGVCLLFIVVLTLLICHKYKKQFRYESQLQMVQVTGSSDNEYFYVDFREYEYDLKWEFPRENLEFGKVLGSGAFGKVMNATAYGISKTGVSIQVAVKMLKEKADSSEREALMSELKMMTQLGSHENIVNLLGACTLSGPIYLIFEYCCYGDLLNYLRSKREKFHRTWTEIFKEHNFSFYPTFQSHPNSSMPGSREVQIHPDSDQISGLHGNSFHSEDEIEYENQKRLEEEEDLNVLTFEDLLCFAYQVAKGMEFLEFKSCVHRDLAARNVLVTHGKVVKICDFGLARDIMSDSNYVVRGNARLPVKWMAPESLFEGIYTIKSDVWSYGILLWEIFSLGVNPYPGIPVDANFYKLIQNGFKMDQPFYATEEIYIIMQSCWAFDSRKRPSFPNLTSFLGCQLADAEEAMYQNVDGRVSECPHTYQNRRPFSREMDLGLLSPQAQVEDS
Experimental: as §1, §2, §3, §4

[4] = target: T3, PIP5K1A (Homo sapiens, UniProt Q99755); experiment: KINOMEscan competition binding, PIP5K1A; details: 10 µM compound; for remaining binding at 10 µM: lower = stronger binding, read-out: PIP5K1A %Ctrl @ 10000nM (POC)
T3 construct: DNA label for qPCR read-out (T7 phage fusion or DNA tag); purchased Eurofins DiscoverX Corporation; host or cells: T7 phage in E. coli (BL21-derived) or HEK-293
T3 sequence (Q99755 whole entry, the tested form may be a part): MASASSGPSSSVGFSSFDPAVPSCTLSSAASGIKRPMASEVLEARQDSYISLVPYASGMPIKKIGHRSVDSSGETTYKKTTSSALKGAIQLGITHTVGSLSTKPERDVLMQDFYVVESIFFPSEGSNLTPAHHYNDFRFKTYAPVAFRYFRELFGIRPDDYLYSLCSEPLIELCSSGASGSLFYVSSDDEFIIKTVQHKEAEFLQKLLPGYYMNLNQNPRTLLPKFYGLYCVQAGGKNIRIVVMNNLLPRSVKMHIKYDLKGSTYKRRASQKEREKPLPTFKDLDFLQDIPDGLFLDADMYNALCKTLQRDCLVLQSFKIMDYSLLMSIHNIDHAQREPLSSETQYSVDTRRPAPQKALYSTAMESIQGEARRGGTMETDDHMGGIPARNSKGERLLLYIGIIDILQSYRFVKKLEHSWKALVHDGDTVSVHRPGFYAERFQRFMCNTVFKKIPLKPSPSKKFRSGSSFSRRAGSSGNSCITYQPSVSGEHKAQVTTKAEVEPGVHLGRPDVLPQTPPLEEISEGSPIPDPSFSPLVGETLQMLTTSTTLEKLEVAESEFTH
Experimental: as §1, §2, §3, §4

| Compound | inhibition at 10 µM [1] [%] | remaining binding at 10 µM [1] [%] | microglial activation (IBA1 staining) [2] | surface area of microglia (Imaris) [2] | inhibition at 10 µM [3] [%] | remaining binding at 10 µM [3] [%] | inhibition at 10 µM [4] [%] | remaining binding at 10 µM [4] [%] |
| --- | --- | --- | --- | --- | --- | --- | --- | --- |
| Cc1cccc(-c2cc3nccc(Nc4ccccc4)c3s2)c1 [BK40143] | 69 | 31 | significant reduction in microglial activation | significantly reduced surface area of microglia | 95.3 | 4.7 | 68 | 32 |
| Cc1cccc(-c2cc3nccc(N4CCOCC4)c3s2)c1 [BK40197] | 0 | 100 | significant reduction in microglial activation | significantly reduced surface area of microglia | 89 | 11 | 94.9 | 5.1 |
